The results in this text go back to patent publication US9321756B2, “Azole compounds as PIM inhibitors” (priority 2011, dated 2016).

What all share (type): biochemical
Experiment [1] has as its target full length recombinant Pim-3 (Homo sapiens (Human), UniProt Q86V86). Briefly: Pim enzyme assay (HTRF, phosphorylation of biotinylated-BAD (S112) peptide), Pim-3. Particulars: read-out: Pim3 IC50. The text has this:
Pim-3 was purchased from Millipore (UK).
The phosphorylation of biotinylated-BAD (S112) peptide by full length recombinant Pim-1, Pim-2, or Pim-3 protein was detected with streptavidin:Allophycocyanin (APC) conjugate and a europium (Eu) labeled antibody directed against phosphorylated-BAD (S112). […] The fluorescence is directly proportional to the amount of phosphorylated BAD peptide present in the reaction.
A reference compound was included on each assay plate in order to validate that plate; on one plate of every assay run, two additional reference compounds were included.
The final buffer conditions were as follows: 60 mM Hepes, pH 7.0, 0.05% BSA, 2 mM DTT. Incubations were carried out at RT (22° C.) for 2 h for Pim-1, 1 h and 30 min for Pim-3, and 45 min for Pim-2. The reaction was then stopped by the addition of 3 mM EDTA, and fluorescence was measured by an HTRF® Rubystar microplate reader. For each plate, percent of control (POC) values were calculated for each well. Values for the IC50 IP were estimated using a standard 4-parameter logistic model.

In experiment [2] the target is full length recombinant Pim-2 (Homo sapiens (Human), UniProt Q9P1W9). The experiment is described as follows: Pim enzyme assay (HTRF, phosphorylation of biotinylated-BAD (S112) peptide), Pim-2. Particulars: read-out: Pim2_IC50.
Experiment [3] has as its target full length recombinant Pim-1 (Homo sapiens (Human), UniProt P11309). The experiment is described as follows: Pim enzyme assay (HTRF, phosphorylation of biotinylated-BAD (S112) peptide), Pim-1. Particulars: Pim-1 enzyme assay; read-out: Pim_1_IC50.

Where two headings read alike, the source gives them in different places. A value given as a limit tells only on which side of the number the result lay.

full length recombinant Pim-1, sequence (P11309 whole entry): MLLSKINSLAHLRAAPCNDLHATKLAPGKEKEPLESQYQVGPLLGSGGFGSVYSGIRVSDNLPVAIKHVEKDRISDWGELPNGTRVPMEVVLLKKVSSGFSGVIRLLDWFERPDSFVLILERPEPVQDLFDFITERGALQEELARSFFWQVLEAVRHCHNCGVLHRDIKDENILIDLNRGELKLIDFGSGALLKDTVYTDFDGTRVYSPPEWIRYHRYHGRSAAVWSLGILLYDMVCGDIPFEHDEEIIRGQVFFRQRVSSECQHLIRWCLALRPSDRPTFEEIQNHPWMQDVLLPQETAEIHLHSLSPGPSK
full length recombinant Pim-2, sequence (Q9P1W9 whole entry): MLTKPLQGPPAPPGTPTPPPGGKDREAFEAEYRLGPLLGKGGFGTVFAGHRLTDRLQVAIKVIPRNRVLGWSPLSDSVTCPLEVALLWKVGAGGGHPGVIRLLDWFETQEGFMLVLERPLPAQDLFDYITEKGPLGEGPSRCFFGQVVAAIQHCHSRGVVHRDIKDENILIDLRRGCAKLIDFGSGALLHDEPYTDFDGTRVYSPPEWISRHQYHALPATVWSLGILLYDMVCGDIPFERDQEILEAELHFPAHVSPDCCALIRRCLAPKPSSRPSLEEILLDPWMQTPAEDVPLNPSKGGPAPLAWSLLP

Take `Nc1nnc(-c2ccc3[nH]cc(-c4cccc(F)n4)c3c2)s1` [Example 209, 5-(3-(6-fluoro-2-pyridinyl)-1H-indol-5-yl)-1,3,4-thiadiazol-2-amine]: the IC50 came to 149 nM in experiment [1] (Pim-3 enzyme assay), 558 nM in experiment [2] (Pim-2 enzyme assay) and 705 nM in experiment [3].

Take `Nc1ncc(-c2ccc3[nH]cc(-c4cnc5ccccc5c4)c3c2)s1` [Example 20, 5-(3-(quinolin-3-yl)-1H-indol-5-yl)thiazol-2-amine]: the IC50 in experiment [1] (Pim-3 enzyme assay) worked out at 267 nM; in experiment [2] it was 2710 nM; in experiment [3], 281 nM.

Take `CNc1nnc(-c2ccc3[nH]cc(-c4csc(-c5ccoc5)n4)c3c2)s1` [Example 240, 5-(3-(2-(3-furanyl)-1,3-thiazol-4-yl)-1H-indol-5-yl)-N-methyl-1,3,4-thiadiazol-2-amine]: the IC50 is 409 nM in experiment [1] (Pim-3 enzyme assay), 2640 nM in experiment [2] (Pim-2 enzyme assay) and 1520 nM in experiment [3].

Take `CNc1nnc(-c2ccc3[nH]cc(-c4cccc(-n5ccccc5=O)n4)c3c2)s1` [Example 238, 6′-(5-(5-(methylamino)-1,3,4-thiadiazol-2-yl)-1H-indol-3-yl)-2H-1,2′-bipyridin-2-one]: the IC50 in experiment [1] (Pim-3 enzyme assay) came to 197 nM; in experiment [2] (Pim-2 enzyme assay), 856 nM; in experiment [3], 712 nM.

Consider `CNc1nnc(-c2ccc3[nH]cc(-c4c(F)cccc4F)c3c2)s1` [Example 237, 5-(3-(2,6-difluorophenyl)-1H-indol-5-yl)-N-methyl-1,3,4-thiadiazol-2-amine], for which the results for the IC50 in experiment [1] (Pim-3 enzyme assay), in experiment [2] (Pim-2 enzyme assay) and in experiment [3] were 227 nM, 1220 nM and 538 nM, respectively.

Take `CNc1nnc(-c2ccc3[nH]cc(-c4cnc5ccccc5c4)c3c2)s1` [Example 217, N-methyl-5-(3-(3-quinolinyl)-1H-indol-5-yl)-1,3,4-thiadiazol-2-amine]: the figures for the IC50 in experiment [1] (Pim-3 enzyme assay), in experiment [2] (Pim-2 enzyme assay) and in experiment [3] were 181 nM, 1630 nM and 234 nM, respectively.

As to `CNc1nnc(-c2ccc3[nH]cc(-c4cccc(OC(F)(F)F)c4)c3c2)s1` [Example 225, N-methyl-5-(3-(3-(trifluoromethoxy)phenyl)-1H-indol-5-yl)-1,3,4-thiadiazol-2-amine], the IC50 in experiment [1] (Pim-3 enzyme assay) was 416 nM; in experiment [2] (Pim-2 enzyme assay), over 3000 nM; in experiment [3], 2360 nM.

As to `CC(Nc1nnc(-c2ccc3[nH]cc(-c4ncccn4)c3c2)o1)c1ccccc1` (stereo not drawn) [Example 266, N-(1-phenylethyl)-5-(3-(2-pyrimidinyl)-1H-indol-5-yl)-1,3,4-oxadiazol-2-amine], the values for the IC50 in experiment [1] (Pim-3 enzyme assay), in experiment [2] (Pim-2 enzyme assay) and in experiment [3] were 43.6 nM, 229 nM and 64.8 nM, respectively.

In the case of `CC(C)(Nc1nnc(-c2ccc3[nH]cc(-c4cncc(C5CC5)n4)c3c2)o1)c1ccccc1` [Example 50, 5-(3-(6-cyclopropylpyrazin-2-yl)-1H-indol-5-yl)-N-(2-phenylpropan-2-yl)-1,3,4-oxadiazol-2-amine], the IC50 worked out at 14.4 nM in experiment [1], 302 nM in experiment [2] (Pim-2 enzyme assay) and 57.7 nM in experiment [3].

As to `Nc1nnc(-c2ccc3[nH]cc(-c4cnc(N5CCCC5)cn4)c3c2)s1` [Example 189, 5-(3-(5-(1-pyrrolidinyl)-2-pyrazinyl)-1H-indol-5-yl)-1,3,4-thiadiazol-2-amine], the IC50 is 73.2 nM in experiment [1] (Pim-3 enzyme assay), 690 nM in experiment [2] (Pim-2 enzyme assay) and 564 nM in experiment [3].

As for `Nc1cc(-c2c[nH]c3ccc(-c4nnc(N)s4)cc23)ccn1` [Example 186, 4-(5-(5-amino-1,3,4-thiadiazol-2-yl)-1H-indol-3-yl)-2-pyridinamine], the IC50 in experiment [1] (Pim-3 enzyme assay) is 83.8 nM; in experiment [2] (Pim-2 enzyme assay), 270 nM; in experiment [3], 260 nM.

For `Nc1nnc(-c2ccc3[nH]cc(-c4cccc(NC5CCCCC5)n4)c3c2)s1` [Example 205, 6-(5-(5-amino-1,3,4-thiadiazol-2-yl)-1H-indol-3-yl)-N-cyclohexyl-2-pyridinamine], the IC50 amounted to 21.6 nM in experiment [1] (Pim-3 enzyme assay), 227 nM in experiment [2] (Pim-2 enzyme assay) and 110 nM in experiment [3].

As for `CC(C)Oc1cccc(-c2c[nH]c3ccc(-c4nnc(N)o4)cc23)c1` [Example 85, 5-(3-(3-(1-methylethoxy)phenyl)-1H-indol-5-yl)-1,3,4-oxadiazol-2-amine], the IC50 in experiment [1] (Pim-3 enzyme assay) came to 81.8 nM; in experiment [2] (Pim-2 enzyme assay) it was 385 nM; in experiment [3] it was 225 nM.

Turning to `CNc1nnc(-c2ccc3[nH]cc(-c4ccc(F)cc4F)c3c2)s1` [Example 23, 5-(3-(2,4-difluorophenyl)-1H-indol-5-yl)-N-methyl-1,3,4-thiadiazol-2-amine], the IC50 in experiment [1] (Pim-3 enzyme assay) came out at 136 nM; in experiment [2] (Pim-2 enzyme assay), 1550 nM; in experiment [3], 423 nM.

In the case of `CC(=O)Nc1ccc(CNc2nnc(-c3ccc4[nH]cc(-c5ccc(F)cc5F)c4c3)s2)cc1` [Example 148, N-(4-(((5-(3-(2,4-difluorophenyl)-1H-indol-5-yl)-1,3,4-thiadiazol-2-yl)amino)methyl)phenyl)acetamide], the IC50 in experiment [1] (Pim-3 enzyme assay) was 1270 nM; in experiment [2] (Pim-2 enzyme assay) it was over 3000 nM; in experiment [3] it was 777 nM.

For the compound `Nc1nnc(-c2ccc3[nH]cc(-c4cnn(CCN5CCOCC5)c4)c3c2)o1` [Example 81, 5-(3-(1-(2-(4-morpholinyl)ethyl)-1H-pyrazol-4-yl)-1H-indol-5-yl)-1,3,4-oxadiazol-2-amine], the IC50 in experiment [1] (Pim-3 enzyme assay) was found to be 147 nM; in experiment [2] (Pim-2 enzyme assay), 273 nM; in experiment [3], 101 nM.

As for `Nc1nnc(-c2ccc3[nH]cc(-c4cccc(-n5ccccc5=O)n4)c3c2)s1` [Example 185, 6′-(5-(5-amino-1,3,4-thiadiazol-2-yl)-1H-indol-3-yl)-2H-1,2′-bipyridin-2-one], the IC50 in experiment [1] (Pim-3 enzyme assay) worked out at 68.2 nM; in experiment [2] (Pim-2 enzyme assay) it was 244 nM; in experiment [3] it was 224 nM.

`Nc1nnc(-c2ccc3[nH]cc(-c4cncc(-c5ccc(F)cc5)n4)c3c2)o1` [Example 7, 5-(3-(6-(4-fluorophenyl)pyrazin-2-yl)-1H-indol-5-yl)-1,3,4-oxadiazol-2-amine]: the IC50 in experiment [1] (Pim-3 enzyme assay) was 19.7 nM; in experiment [2] (Pim-2 enzyme assay) it was 42.5 nM; in experiment [3], 28.8 nM.

As to `CNc1nnc(-c2ccc3[nH]cc(-c4cccc(N)c4)c3c2)s1` [Example 221, 5-(3-(3-aminophenyl)-1H-indol-5-yl)-N-methyl-1,3,4-thiadiazol-2-amine], the results for the IC50 in experiment [1] (Pim-3 enzyme assay), in experiment [2] (Pim-2 enzyme assay) and in experiment [3] were 158 nM, 1490 nM and 744 nM, respectively.

For the compound `Nc1nnc(-c2ccc3[nH]cc(-c4cnc(OC5CCCC5)cn4)c3c2)s1` [Example 195, 5-(3-(5-(cyclopentyloxy)-2-pyrazinyl)-1H-indol-5-yl)-1,3,4-thiadiazol-2-amine], the IC50 in experiment [1] (Pim-3 enzyme assay) was found to be 506 nM; in experiment [2] (Pim-2 enzyme assay) it was 1340 nM; in experiment [3] it was 956 nM.

On to `CNc1nnc(-c2ccc3[nH]cc(-c4cccnc4)c3c2)s1` [Example 220, N-methyl-5-(3-(3-pyridinyl)-1H-indol-5-yl)-1,3,4-thiadiazol-2-amine], for which the IC50 in experiment [1] (Pim-3 enzyme assay) was found to be 274 nM; in experiment [2] (Pim-2 enzyme assay), 1230 nM; in experiment [3], 636 nM.

As for `CNc1nnc(-c2ccc3[nH]cc(-c4cccc(C(F)(F)F)c4)c3c2)s1` [Example 224, N-methyl-5-(3-(3-(trifluoromethyl)phenyl)-1H-indol-5-yl)-1,3,4-thiadiazol-2-amine], the figures for the IC50 in experiment [1] (Pim-3 enzyme assay), in experiment [2] (Pim-2 enzyme assay) and in experiment [3] were 207 nM, over 3000 nM and 1890 nM, respectively.

In the case of `Nc1nnc(-c2ccc3[nH]cc(-c4cnc(N5CCOCC5)cn4)c3c2)s1` [Example 192, 5-(3-(5-(4-morpholinyl)-2-pyrazinyl)-1H-indol-5-yl)-1,3,4-thiadiazol-2-amine], the values for the IC50 in experiment [1] (Pim-3 enzyme assay), in experiment [2] (Pim-2 enzyme assay) and in experiment [3] were 266 nM, 2400 nM and 908 nM, respectively.

Regarding `NC(=O)c1nnc(-c2ccc3[nH]cc(-c4cccc(N5CCOCC5)n4)c3c2)s1` [Example 242, 5-(3-(6-(4-morpholinyl)-2-pyridinyl)-1H-indol-5-yl)-1,3,4-thiadiazole-2-carboxamide], the IC50 in experiment [1] (Pim-3 enzyme assay) was 351 nM; in experiment [2] (Pim-2 enzyme assay), over 3000 nM; in experiment [3] it was 983 nM.

In the case of `CC(C)(Nc1nnc(-c2ccc3[nH]cc(-c4ncccn4)c3c2)o1)c1ccccc1` [Example 52, N-(2-phenylpropan-2-yl)-5-(3-(pyrimidin-2-yl)-1H-indol-5-yl)-1,3,4-oxadiazol-2-amine 2,2,2-trifluoroacetate], the IC50 is 40.3 nM in experiment [1] (Pim-3 enzyme assay), 271 nM in experiment [2] (Pim-2 enzyme assay) and 70.1 nM in experiment [3].

On to `Oc1nnc(-c2ccc3[nH]cc(-c4ccc(F)cc4F)c3c2)s1` [Example 26, 5-(3-(2,4-difluorophenyl)-1H-indol-5-yl)-1,3,4-thiadiazol-2-ol], for which the IC50 was 795 nM in experiment [1] (Pim-3 enzyme assay), over 3000 nM in experiment [2] (Pim-2 enzyme assay) and 2000 nM in experiment [3].

Regarding `CNc1nnc(-c2ccc3[nH]cc(-c4ccc(-c5cccs5)s4)c3c2)s1` [Example 241, 5-(3-(2,2′-bithiophen-5-yl)-1H-indol-5-yl)-N-methyl-1,3,4-thiadiazol-2-amine], the IC50 in experiment [1] (Pim-3 enzyme assay) was 414 nM; in experiment [2] (Pim-2 enzyme assay) it was over 10000 nM; in experiment [3], 2180 nM.

With `CNc1nnc(-c2ccc3[nH]cc(-c4cccc(N5CCCCC5=O)n4)c3c2)s1` [Example 236, 1-(6-(5-(5-(methylamino)-1,3,4-thiadiazol-2-yl)-1H-indol-3-yl)-2-pyridinyl)-2-piperidinone], the values for the IC50 in experiment [1] (Pim-3 enzyme assay), in experiment [2] (Pim-2 enzyme assay) and in experiment [3] were 114 nM, 538 nM and 325 nM, respectively.
